The results in this text go back to ChEMBL document CHEMBL5321204, “Hybrids of delavirdine and piperdin-4-yl-aminopyrimidines (DPAPYs) as potent HIV-1 NNRTIs: Design, synthesis and biological activities” (Eur J Med Chem, 2023).

The EC50 is the concentration giving half of the maximal effect. The CC50 is the concentration giving 50% cytotoxicity. By IC50 is commonly meant the concentration needed to halve the response being measured. High values mean lower potency, low ones higher potency.

The test system of series [1] is Human immunodeficiency virus 2. Briefly: Antiviral activity against HIV-2 ROD infected in human MT4 cells assessed as protection against virus induced cytopathic effect and measured after 5 days by MTT spectrophotometric assay. Particulars: Human immunodeficiency virus 2, ROD, MT4, 120 h. Type of series: functional, organism-based.
Series [2] is described as follows: Cytotoxicity against human MT4 cells assessed as reduction in cell viability incubated for 5 days by MTT spectrophotometric assay. Type of series: toxicity, cell-based. Particulars: time 5 day. Background: Tetrazolium dyes change colour on reduction, which living cells bring about.
Series [3] concerns the target Human immunodeficiency virus type 1 reverse transcriptase (Human immunodeficiency virus 1, UniProt Q72547). Briefly: Inhibition of HIV-1 reverse transcriptase using [2,8-3H]dGTP as substrate by […] assay.
Series [4] deals with Human immunodeficiency virus 1. Kind of series: Antiviral activity against HIV-1 L100I mutant infected in human MT4 cells assessed as protection against virus induced cytopathic effect and measured after 5 days by MTT spectrophotometric assay. Type of series: functional, organism-based. Particulars: Human immunodeficiency virus 1, MT4, 120 h.
In series [5] the test system is Human immunodeficiency virus 1. Briefly: Antiviral activity against HIV-1 K103 N mutant infected in human MT4 cells assessed as protection against virus induced cytopathic effect and measured after 5 days by MTT spectrophotometric assay. The format is functional, organism-based. As to conditions: Human immunodeficiency virus 1, MT4, 120 h.
For series [6], the system named is Human immunodeficiency virus 1. Briefly: Antiviral activity against HIV-1 Y181C mutant infected in human MT4 cells assessed as protection against virus induced cytopathic effect and measured after 5 days by MTT spectrophotometric assay. Type of series: functional, organism-based. Particulars: Human immunodeficiency virus 1, MT4, 120 h. For orientation: Cytopathic effects are the visible damage that an infection or toxin causes in cultured cells.

For series [7], the system named is Human immunodeficiency virus 1. Briefly: Antiviral activity against HIV-1 Y188L mutant infected in human MT4 cells assessed as protection against virus induced cytopathic effect and measured after 5 days by MTT spectrophotometric assay. Type of series: functional, organism-based. Particulars: Human immunodeficiency virus 1, MT4, 120 h.
Series [8] concerns Human immunodeficiency virus 1. Briefly: Antiviral activity against HIV-1 E138K mutant infected in human MT4 cells assessed as protection against virus induced cytopathic effect and measured after 5 days by MTT spectrophotometric assay. Type of series: functional, organism-based. As to conditions: Human immunodeficiency virus 1, MT4, 120 h.
Series [9] has as its system Human immunodeficiency virus 1. Kind of series: Antiviral activity against HIV-1 RES056 mutant infected in human MT4 cells assessed as protection against virus induced cytopathic effect and measured after 5 days by MTT spectrophotometric assay. As to conditions: Human immunodeficiency virus 1, MT4, 120 h. The format is functional, organism-based.
In series [10] the test system is Human immunodeficiency virus 1. Kind of series: Antiviral activity against HIV-1 F227L-V106A mutant infected in human MT4 cells assessed as protection against virus induced cytopathic effect and measured after 5 days by MTT spectrophotometric assay. Type of series: functional, organism-based. Particulars: Human immunodeficiency virus 1, MT4, 120 h.
Another series in a line: in vitro. Particulars: human, MT4 cells.
Series [11] relates to Human immunodeficiency virus 1. Kind of series: microbe, parasite or virus in culture. As to conditions: Human immunodeficiency virus 1, IIIb, MT4, 120 h.
Description: Antiviral activity against HIV-1 IIIb infected in human MT4 cells assessed as protection against virus induced cytopathic effect and measured after 5 days by MTT spectrophotometric assay

Description for in vitro: Selectivity index, ratio of CC50 for cytotoxicity against human MT4 cells assessed as reduction in cell viability to EC50 for antiviral activity against HIV-1 IIIb infected in human MT4 cells assessed as reduction in virus induced cytopathic effect

On to `CS(=O)(=O)Nc1ccc2[nH]c(C(=O)N3CCC(Nc4nccc(Oc5ccccc5Br)n4)CC3)cc2c1`, for which the EC50 in [1] is above 17 µM; in [4], 6.8 µM; in series [5], 3.8 µM; in [6] it was 3.7 µM; in series [7], 7.1 µM; in series [8], 0.79 µM. In addition, the EC50 in [9] was above 17 µM; in series [10], 6.5 µM; in series [11], 0.27 µM. For the same molecule, in [2], the CC50 at 120 h came to 17 µM. For the same molecule, the midpoint of inhibition in series [3], the IC50, lay at 1.4 µM. Further, the selectivity ratio in the series “in vitro” is 60.

For `CS(=O)(=O)Nc1ccc2[nH]c(C(=O)N3CCC(Nc4nccc(Oc5ccc(Br)cc5)n4)CC3)cc2c1`, the EC50 in series [1] was above 9.1 µM; in series [4], 7.1 µM; in series [5], 8.2 µM; in series [6] it was above 9.1 µM; in series [7], above 9.1 µM; in series [8], 6.7 µM. Further, the EC50 in series [9] was above 9.1 µM; in series [10] it was above 9.1 µM; in [11] it was 0.87 µM. Also, in series [2], the CC50 at 120 h is 9.1 µM. In [3], the half-maximal inhibitory concentration (IC50) stood at 2.2 µM. Moreover, in “in vitro”, the selectivity ratio was found to be 10.

On to `CS(=O)(=O)Nc1ccc2[nH]c(C(=O)N3CCC(Nc4nccc(Oc5cccc(C(F)(F)F)c5)n4)CC3)cc2c1`, for which the EC50 in series [1] is above 16 µM; in series [4] it was above 16 µM; in series [5] it was above 16 µM; in series [6], above 16 µM; in series [7], above 16 µM; in series [8], 4.2 µM. The EC50 in [9] is above 16 µM; in series [10], above 16 µM; in series [11] it was 1 µM. The CC50 at 120 h in series [2] worked out at 16 µM. Also, the IC50 in series [3] stood at 1.8 µM. The selectivity ratio in the series “in vitro” was 16.

On to `CS(=O)(=O)Nc1ccc2[nH]c(C(=O)N3CCC(Nc4nccc(Oc5cccc(F)c5)n4)CC3)cc2c1`, for which the EC50 in [1] was above 15 µM; in series [4], above 15 µM; in [5] it was above 15 µM; in series [6], above 15 µM; in series [7] it was above 15 µM; in series [8], 7.3 µM. Besides, the EC50 is above 15 µM in series [9], above 15 µM in series [10] and 5.7 µM in series [11]. The CC50 at 120 h in [2] was 15 µM. Besides, in series [3], half-maximal inhibition (IC50) required 4.2 µM. The selectivity ratio in the series “in vitro” stood at 3.

With `CS(=O)(=O)Nc1ccc2[nH]c(C(=O)N3CCC(Nc4nccc(Oc5cccc(Br)c5)n4)CC3)cc2c1`, the EC50 was above 14 µM in series [1]; 7.2 µM in series [4]; 7.6 µM in series [5]; 8.1 µM in [6]; above 14 µM in series [7]; 3.5 µM in series [8]. The EC50 in series [9] is above 14 µM; in series [10], 8.1 µM; in [11], 0.67 µM. Further, the CC50 at 120 h in series [2] worked out at 14 µM. This molecule returned an IC50 in series [3] of 3.4 µM. In addition, in the series “in vitro”, the selectivity ratio was 21.

On to `CS(=O)(=O)Nc1ccc2[nH]c(C(=O)N3CCC(Nc4nccc(Oc5ccc(C(F)(F)F)cc5)n4)CC3)cc2c1`, for which the EC50 in series [1] was above 18 µM; in [4], above 18 µM; in series [5], above 18 µM; in series [6] it was above 18 µM; in series [7], above 18 µM; in series [8] it was 5.7 µM. Further, the EC50 in series [9] is above 18 µM; in series [10], above 18 µM; in series [11], 1.8 µM. For the same molecule, the CC50 at 120 h in [2] worked out at 18 µM. In addition, the IC50 in series [3] was determined as 1.3 µM. The selectivity ratio in the series “in vitro” was 10.
